Assay results from US20230085307A1, “PYRIDAZINONE COMPOUND AND HERBICIDE” (NISSAN CHEMICAL CORPORATION, priority 2019, published 2023).

Legend:
rice flat sedge = assay: Test Example 3: herbicidal effect by foliage application, Wagner pot (Table 18, symbol E); format: in vivo, rice flat sedge (Cyperus iria)
Summary of the method: (§1)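 Plants were sown in alluvial soil held under 0.1–0.5 cm standing water and grown 14 days in a greenhouse at 25–30 °C. An emulsifiable formulation, water-diluted to the set dose, was then sprayed onto the foliage, and effects were scored three weeks later using previously defined criteria.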

southern crabgrass [1] = assay: Test Example 5: herbicidal effect by foliage application, plastic box (Table 20, symbol F); format: in vivo, southern crabgrass (Digitaria ciliaris); conditions: foliage application, three weeks after application
Summary of the method: (§2)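 Plants sown in sterilized diluvial soil and grown 14 days in a greenhouse at 25° C to 30° C, then sprayed on the foliage with the compound's emulsion diluted in water to a predetermined herbicide amount. Injury to weeds and crops scored three weeks after application on a visual rating scale.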

barnyard grass [2] = assay: Test Example 3: herbicidal effect by foliage application, Wagner pot (Table 18, symbol H); format: in vivo, barnyard grass (Echinochloa crus-galli)
Summary of the method: as §1

velvetleaf [3] = assay: Test Example 5: herbicidal effect by foliage application, plastic box (Table 20, symbol M); format: in vivo, velvetleaf (Abutilon theophrasti); conditions: foliage application, three weeks after application
Summary of the method: as §2

redroot pigweed [4] = assay: Test Example 5: herbicidal effect by foliage application, plastic box (Table 20, symbol N); format: in vivo, redroot pigweed (Amaranthus retroflexus); conditions: foliage application, three weeks after application
Summary of the method: as §2

southern crabgrass [5] = assay: Test Example 4: herbicidal effect by soil treatment (Table 19, symbol F); format: in vivo, southern crabgrass (Digitaria ciliaris)
Summary of the method: (§3)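 Seeds were sown in sterilized diluvial soil and covered with about 1.5 cm of soil. An emulsion formulation diluted with water to a predetermined herbicide amount was sprayed evenly onto the soil surface. Plants grew in a greenhouse at 25° C. to 30° C., and the effect was scored three weeks after application using criteria from an earlier test.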

green foxtail [6] = assay: Test Example 5: herbicidal effect by foliage application, plastic box (Table 20, symbol G); format: in vivo, green foxtail (Setaria viridis); conditions: foliage application, three weeks after application
Summary of the method: as §2

redroot pigweed [7] = assay: Test Example 4: herbicidal effect by soil treatment (Table 19, symbol N); format: in vivo, redroot pigweed (Amaranthus retroflexus)
Summary of the method: as §3

late watergrass = assay: Test Example 1: herbicidal activity, application before weed generation under submerged conditions (Table 16, symbol A); format: in vivo, late watergrass (Echinochloa oryzicola)
Summary of the method: (§4)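 Submerged Wagner pots (alluvial soil, 4 cm water) sown with weed seeds and planted with 2.5-leaf rice seedlings; emulsifiable concentrate diluted in water applied to water surface on sowing day. Held in greenhouse at 25-30 °C; injury scored 0-5 by herbicidal rate after three weeks.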

Japanese bulrush = assay: Test Example 1: herbicidal activity, application before weed generation under submerged conditions (Table 16, symbol B); format: in vivo, Japanese bulrush (Schoenoplectus juncoides)
Summary of the method: as §4

velvetleaf [8] = assay: Test Example 4: herbicidal effect by soil treatment (Table 19, symbol M); format: in vivo, velvetleaf (Abutilon theophrasti)
Summary of the method: as §3

lambsquarters [9] = assay: Test Example 5: herbicidal effect by foliage application, plastic box (Table 20, symbol O); format: in vivo, lambsquarters (Chenopodium album); conditions: foliage application, three weeks after application
Summary of the method: as §2

barnyard grass [10] = assay: Test Example 5: herbicidal effect by foliage application, plastic box (Table 20, symbol H); format: in vivo, barnyard grass (Echinochloa crus-galli); conditions: foliage application, three weeks after application
Summary of the method: as §2

barnyard grass [11] = assay: Test Example 4: herbicidal effect by soil treatment (Table 19, symbol H); format: in vivo, barnyard grass (Echinochloa crus-galli)
Summary of the method: as §3

green foxtail [12] = assay: Test Example 4: herbicidal effect by soil treatment (Table 19, symbol G); format: in vivo, green foxtail (Setaria viridis)
Summary of the method: as §3

lambsquarters [13] = assay: Test Example 4: herbicidal effect by soil treatment (Table 19, symbol O); format: in vivo, lambsquarters (Chenopodium album)
Summary of the method: as §3

oval-leafed pondweed = assay: Test Example 1: herbicidal activity, application before weed generation under submerged conditions (Table 16, symbol C); format: in vivo, oval-leafed pondweed (Monochoria vaginalis)
Summary of the method: as §4

Chinese sprangletop = assay: Test Example 3: herbicidal effect by foliage application, Wagner pot (Table 18, symbol D); format: in vivo, chinese sprangletop (Leptochloa chinensis)
Summary of the method: as §1

[14] = amount of applied herbicide 320 g/ha
[15] = amount of applied herbicide 403 g/ha

| Compound | herbicidal effect on E: rice flat sedge (rice flat sedge; [14]) | F: southern crabgrass, herbicidal effect grade (southern crabgrass [1]; 320 g/ha) | herbicidal effect on H: barnyard grass (barnyard grass [2]; [14]) | M: velvetleaf, herbicidal effect grade (velvetleaf [3]; 320 g/ha) | N: redroot pigweed, herbicidal effect grade (redroot pigweed [4]; 320 g/ha) | herbicidal effect, F: southern crabgrass (southern crabgrass [5]; [14]) | G: green foxtail, herbicidal effect grade (green foxtail [6]; 320 g/ha) | herbicidal effect, N: redroot pigweed (redroot pigweed [7]; [14]) | Herbicidal effect, A: late watergrass (late watergrass; [14]) | Herbicidal effect, B: Japanese bulrush (Japanese bulrush; [14]) | herbicidal effect, M: velvetleaf (velvetleaf [8]; [14]) | O: lambsquarters, herbicidal effect grade (lambsquarters [9]; 320 g/ha) | H: barnyard grass, herbicidal effect grade (barnyard grass [10]; 320 g/ha) | herbicidal effect, H: barnyard grass (barnyard grass [11]; [14]) | herbicidal effect, G: green foxtail (green foxtail [12]; [14]) | herbicidal effect, O: lambsquarters (lambsquarters [13]; [14]) | Herbicidal effect, C: oval-leafed pondweed (oval-leafed pondweed; [14]) | herbicidal effect on D: Chinese sprangletop (Chinese sprangletop; [14]) | also measured |
| --- | --- | --- | --- | --- | --- | --- | --- | --- | --- | --- | --- | --- | --- | --- | --- | --- | --- | --- | --- |
| CON=C(C)CSc1ccc(-c2sc3ccc(F)cc3c2-c2c(O)c(C)nn(C)c2=O)cc1 [2-451] | 5 (Herbicidal rate of 90% or more (almost completely withered)) | 4 (Herbicidal rate of 70% or more and less than 90%) | 5 (Herbicidal rate of 90% or more (almost completely withered)) | 5 (Herbicidal rate of 90% or more (almost completely withered)) | 5 (Herbicidal rate of 90% or more (almost completely withered)) | 0 (Herbicidal rate of 5% or less (almost no effect)) | 5 (Herbicidal rate of 90% or more (almost completely withered)) | 5 (Herbicidal rate of 90% or more (almost completely withered)) | 2 (Herbicidal rate of 20% or more and less than 40%) | 0 (Herbicidal rate of 5% or less (almost no effect)) | 3 (Herbicidal rate of 40% or more and less than 70%) | 5 (Herbicidal rate of 90% or more (almost completely withered)) | 5 (Herbicidal rate of 90% or more (almost completely withered)) | 0 (Herbicidal rate of 5% or less (almost no effect)) | 0 (Herbicidal rate of 5% or less (almost no effect)) | 4 (Herbicidal rate of 70% or more and less than 90%) | 0 (Herbicidal rate of 5% or less (almost no effect)) | 3 (Herbicidal rate of 40% or more and less than 70%) | – |
| CC[S+]([O-])c1cccc(-c2sc3ccc(F)cc3c2-c2c(O)c(C)nn(C)c2=O)c1 (stereo not drawn) [2-460] | – | – | – | – | – | – | – | – | – | – | – | – | – | – | – | – | – | – | herbicidal effect on E: rice flat sedge (rice flat sedge; [15]): 0 (Herbicidal rate of 5% or less (almost no effect)); F: southern crabgrass, herbicidal effect grade (southern crabgrass [1]; 403 g/ha): 0 (Herbicidal rate of 5% or less (almost no effect)); herbicidal effect on H: barnyard grass (barnyard grass [2]; [15]): 4 (Herbicidal rate of 70% or more and less than 90%); M: velvetleaf, herbicidal effect grade (velvetleaf [3]; 403 g/ha): 3 (Herbicidal rate of 40% or more and less than 70%); N: redroot pigweed, herbicidal effect grade (redroot pigweed [4]; 403 g/ha): 3 (Herbicidal rate of 40% or more and less than 70%); herbicidal effect, F: southern crabgrass (southern crabgrass [5]; [15]): 0 (Herbicidal rate of 5% or less (almost no effect)); G: green foxtail, herbicidal effect grade (green foxtail [6]; 403 g/ha): 2 (Herbicidal rate of 20% or more and less than 40%); herbicidal effect, N: redroot pigweed (redroot pigweed [7]; [15]): 3 (Herbicidal rate of 40% or more and less than 70%); Herbicidal effect, A: late watergrass (late watergrass; [15]): 3 (Herbicidal rate of 40% or more and less than 70%); Herbicidal effect, B: Japanese bulrush (Japanese bulrush; [15]): 0 (Herbicidal rate of 5% or less (almost no effect)); herbicidal effect, M: velvetleaf (velvetleaf [8]; [15]): 0 (Herbicidal rate of 5% or less (almost no effect)); O: lambsquarters, herbicidal effect grade (lambsquarters [9]; 403 g/ha): 3 (Herbicidal rate of 40% or more and less than 70%); H: barnyard grass, herbicidal effect grade (barnyard grass [10]; 403 g/ha): 3 (Herbicidal rate of 40% or more and less than 70%); herbicidal effect, H: barnyard grass (barnyard grass [11]; [15]): 0 (Herbicidal rate of 5% or less (almost no effect)); herbicidal effect, G: green foxtail (green foxtail [12]; [15]): 0 (Herbicidal rate of 5% or less (almost no effect)); herbicidal effect, O: lambsquarters (lambsquarters [13]; [15]): 3 (Herbicidal rate of 40% or more and less than 70%); Herbicidal effect, C: oval-leafed pondweed (oval-leafed pondweed; [15]): 0 (Herbicidal rate of 5% or less (almost no effect)); herbicidal effect on D: Chinese sprangletop (Chinese sprangletop; [15]): 0 (Herbicidal rate of 5% or less (almost no effect)) |
| Cc1nn(C)c(=O)c(-c2c(-c3ccoc3)sc3ccc(F)cc23)c1O [2-461] | 4 (Herbicidal rate of 70% or more and less than 90%) | 2 (Herbicidal rate of 20% or more and less than 40%) | 4 (Herbicidal rate of 70% or more and less than 90%) | 4 (Herbicidal rate of 70% or more and less than 90%) | 4 (Herbicidal rate of 70% or more and less than 90%) | 0 (Herbicidal rate of 5% or less (almost no effect)) | 3 (Herbicidal rate of 40% or more and less than 70%) | 2 (Herbicidal rate of 20% or more and less than 40%) | 3 (Herbicidal rate of 40% or more and less than 70%) | 0 (Herbicidal rate of 5% or less (almost no effect)) | 0 (Herbicidal rate of 5% or less (almost no effect)) | 3 (Herbicidal rate of 40% or more and less than 70%) | 3 (Herbicidal rate of 40% or more and less than 70%) | 0 (Herbicidal rate of 5% or less (almost no effect)) | 0 (Herbicidal rate of 5% or less (almost no effect)) | 1 (Herbicidal rate of 5% or more and less than 20%) | 0 (Herbicidal rate of 5% or less (almost no effect)) | 0 (Herbicidal rate of 5% or less (almost no effect)) | – |
| C#CCSc1ccc(-c2sc3ccc(F)cc3c2-c2c(O)c(C)nn(C)c2=O)cc1 [2-465] | 5 (Herbicidal rate of 90% or more (almost completely withered)) | 2 (Herbicidal rate of 20% or more and less than 40%) | 5 (Herbicidal rate of 90% or more (almost completely withered)) | 4 (Herbicidal rate of 70% or more and less than 90%) | 5 (Herbicidal rate of 90% or more (almost completely withered)) | 0 (Herbicidal rate of 5% or less (almost no effect)) | 5 (Herbicidal rate of 90% or more (almost completely withered)) | 5 (Herbicidal rate of 90% or more (almost completely withered)) | 4 (Herbicidal rate of 70% or more and less than 90%) | 2 (Herbicidal rate of 20% or more and less than 40%) | 0 (Herbicidal rate of 5% or less (almost no effect)) | 5 (Herbicidal rate of 90% or more (almost completely withered)) | 5 (Herbicidal rate of 90% or more (almost completely withered)) | 0 (Herbicidal rate of 5% or less (almost no effect)) | 0 (Herbicidal rate of 5% or less (almost no effect)) | 4 (Herbicidal rate of 70% or more and less than 90%) | 3 (Herbicidal rate of 40% or more and less than 70%) | 3 (Herbicidal rate of 40% or more and less than 70%) | – |
